The values below come from article PMC12116762, “Topobexin targets the Topoisomerase II ATPase domain for beta isoform-selective inhibition and anthracycline cardioprotection” (Nature Communications, 2025).

Several values for one entry are separate records, joined by “and”; a condition that tells them apart may be missing. Equal entries are not always repeated.

In data set [1] the target is T1, TOP2B-DNA covalent complex (Homo sapiens, UniProt Q02880).
T1 construct: endogenous in cells; host or cells: HEK293F
Kind of data set: RADAR assay, etoposide-induced TOP2B-DNA covalent complex in HEK293F cells. The class given is cell-based. The settings on record: for TOP2B spot intensity: independent replicates. As to the method: HEK293F cells were plated at 3 × 10^5 cells per well and grown overnight. […] Upon removal of media, cells in each well were immediately lysed with 750 µL DNAzol (Molecular Research Center, Inc.) and the DNA was precipitated by addition of 375 µL of 100% ethanol. This step was then repeated to eliminate protein aggregates. Precipitate from each sample was pelleted via centrifugation at 4 °C and max speed for 5 min. The pellets were washed twice with buffer containing 20 mM Tris pH 7.5, 1 mM EDTA pH 8.0, 50 mM NaCl, 50% EtOH, and at the end of each wash, centrifugation at 4000 × g for 2 min was repeated to isolate the DNA pellets. The pellets were washed in 75% EtOH and then collected by centrifugation at 4 °C and max speed for 5 min. The supernatant was removed via pipetting, and the remaining pellets were air dried for 5 min before 50 µL 8 mM NaOH and 0.1% Tween-20 was added to each pellet. Once no visible precipitate remained, each mixture was supplemented with 5 µL of Benzonase buffer containing 500 mM Tris pH 8.0, 10 mM MgCl2, 1/1000 Roche complete protease inhibitor cocktail (Millipore Sigma) and 40 units Benzonase (Millipore Sigma) followed by 30 to 60 min incubation at 37 °C until the pellets were fully dissolved. The DNA content from each sample was quantified on a nanodrop, and 10 µg of DNA was diluted to a final volume of 200 µL in 8 mM NaOH and 0.1% Tween. The samples were applied over the Whatman Minifold I dot blot apparatus (Cytiva) and collected on a PVDF membrane (Thermo Fisher Scientific). The membrane was washed three times with 8 mM NaOH and 0.1% Tween-20 solution prior to removal and blocking with the same wash solution containing 1 mg/mL BSA. Western blotting was carried out on an iBind (Thermo Fisher Scientific) and TOP2 proteins were detected using isoform-specific antibody against full length TOP2A (1:250 dilution; HT2A21, Inspiralis) and TOP2B (1:500 dilution; 611493, BD Biosciences) and visualized with anti-rabbit (1:1000 dilution; 926-68071, LI-COR Bio) and anti-mouse (1:1000 dilution; 926-32210, LI-COR Bio) secondary antibodies in iBind running buffer. The blots were imaged on a LI-COR Odyssey Fc and analysed using ImageStudio. Each presented data point was obtained from distinct sample.

Another data set has as its target T2, TOP2B (Rattus norvegicus, UniProt A0A8I5Y7L4).
T2 construct: endogenous in cells; host or cells: primary neonatal Wistar rat ventricular cardiomyocytes (NVCM)
Description: TOP2B protein levels in NVCM (Western blotting). The class given is cell-based. To be noted: for TOP2B protein level: independent replicates. How it is done:
TOP2B and γH2AX levels in NVCM were determined as follows. After incubation, 4 × 10^5 rat neonatal cardiomyocytes were lysed with 75 µL of 2% SDS in 0.1 M Tris (pH 7.4) and boiled at 95 °C for 5 min. The protein content of each sample was determined by the BCA method and 10 μg of total protein were loaded onto a polyacrylamide gel (7.5% for TOP2B, 12% for γH2AX, Bio-Rad TGX stain-free gels). After approximately 75 min of electrophoresis (150 V, Bio-Rad Mini-PROTEAN Tetra Cell), the gels were transblotted onto nitrocellulose membranes using a semi-dry method in Transblot Turbo (Bio-Rad, USA). The next day, the membranes were blocked for 1 h in 5% skimmed milk powder in 0.05% TBS-T at room temperature (RT). For TOP2 analysis, membranes were incubated with rabbit anti-TOP2A/B (1:2,000, ab109524, Abcam, UK) in 1% BSA in PBS for 1 h at RT, washed 6 times for 5 min in 0.05% TBS-T and then incubated with HRP-labeled F(ab’)2 goat anti-rabbit IgG (1:10,000, ab6112, Abcam, UK) in 0.05% TBS-T for 1 h RT and washed again (6 × 5 min in 0.05% TBS-T). For γH2AX analysis, membranes were incubated with mouse anti-γH2AX (1:5,000; ab26350, Abcam, UK) in 5% BSA in PBS for 1 h at RT, washed with 0.05% PBS-T for 6 × 5 min, incubated with HRP-conjugated anti-mouse IgG (1:40,000; A9044 Sigma Aldrich, USA) in 5% BSA in PBS for 1 h RT and finally washed with 0.05% PBS-T for 6 times 5 min. Target proteins were visualized using a chemiluminescent detection substrate (Clarity Western ECL Substrate, Bio-Rad, USA) and a Gel Doc EZ with Image Lab software (Bio-Rad, USA). Full, uncropped images of all blots present in the manuscript figures are included in the source data file.
Densitometric quantification was performed using Image Lab software (Bio-Rad). Stain-free technology was used to visualize the total protein on the gel and normalize the total protein amount in each line. Each presented data point was obtained from distinct sample.

The nature of another data set: Aqueous solubility. The class given is physicochemical. The settings on record: limited evaluation to ≤ 10 μM.

T1 sequence (Q02880 2-1626 limits assumed, one chain of several): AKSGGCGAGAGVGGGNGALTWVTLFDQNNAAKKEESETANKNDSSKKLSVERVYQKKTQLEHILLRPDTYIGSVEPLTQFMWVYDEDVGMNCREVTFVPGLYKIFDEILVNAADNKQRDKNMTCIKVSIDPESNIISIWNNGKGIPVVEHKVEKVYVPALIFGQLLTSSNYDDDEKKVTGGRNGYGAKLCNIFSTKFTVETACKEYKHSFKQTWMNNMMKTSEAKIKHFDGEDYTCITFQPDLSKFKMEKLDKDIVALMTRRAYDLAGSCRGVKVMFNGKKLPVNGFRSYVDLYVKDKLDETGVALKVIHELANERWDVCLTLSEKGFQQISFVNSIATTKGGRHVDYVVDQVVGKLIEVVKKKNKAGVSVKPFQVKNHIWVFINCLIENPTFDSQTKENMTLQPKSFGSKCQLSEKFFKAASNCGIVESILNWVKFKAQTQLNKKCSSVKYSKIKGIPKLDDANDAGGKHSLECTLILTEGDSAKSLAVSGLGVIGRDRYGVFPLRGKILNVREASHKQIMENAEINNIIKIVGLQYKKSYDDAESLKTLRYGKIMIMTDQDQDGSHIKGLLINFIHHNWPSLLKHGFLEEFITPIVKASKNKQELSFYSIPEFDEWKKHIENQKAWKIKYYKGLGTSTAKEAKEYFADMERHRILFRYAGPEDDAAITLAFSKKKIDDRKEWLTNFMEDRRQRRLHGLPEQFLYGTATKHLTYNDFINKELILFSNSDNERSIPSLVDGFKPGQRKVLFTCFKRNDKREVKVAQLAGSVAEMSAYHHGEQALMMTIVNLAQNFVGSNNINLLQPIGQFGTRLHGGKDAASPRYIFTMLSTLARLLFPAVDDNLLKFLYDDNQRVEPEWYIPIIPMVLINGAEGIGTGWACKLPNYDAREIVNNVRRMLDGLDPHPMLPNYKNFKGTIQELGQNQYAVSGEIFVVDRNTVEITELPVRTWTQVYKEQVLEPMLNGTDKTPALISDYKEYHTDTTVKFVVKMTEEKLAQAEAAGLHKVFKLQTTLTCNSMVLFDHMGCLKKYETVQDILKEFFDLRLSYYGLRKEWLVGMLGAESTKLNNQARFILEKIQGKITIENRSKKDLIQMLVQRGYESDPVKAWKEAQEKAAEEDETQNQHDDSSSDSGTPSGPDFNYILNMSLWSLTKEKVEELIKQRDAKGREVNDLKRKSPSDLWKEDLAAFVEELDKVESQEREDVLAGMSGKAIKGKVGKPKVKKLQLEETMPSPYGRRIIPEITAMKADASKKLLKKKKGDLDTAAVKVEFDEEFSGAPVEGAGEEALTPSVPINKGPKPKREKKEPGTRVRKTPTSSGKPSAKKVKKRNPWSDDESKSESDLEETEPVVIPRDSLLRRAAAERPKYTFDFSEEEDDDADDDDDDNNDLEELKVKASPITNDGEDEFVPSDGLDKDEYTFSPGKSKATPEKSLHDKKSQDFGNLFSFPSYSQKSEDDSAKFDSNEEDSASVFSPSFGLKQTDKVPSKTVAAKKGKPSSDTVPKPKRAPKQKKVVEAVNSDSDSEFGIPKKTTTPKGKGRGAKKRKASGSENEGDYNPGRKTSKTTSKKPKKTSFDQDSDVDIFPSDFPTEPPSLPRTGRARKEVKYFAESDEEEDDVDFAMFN
T2 sequence (A0A8I5Y7L4 1-1614): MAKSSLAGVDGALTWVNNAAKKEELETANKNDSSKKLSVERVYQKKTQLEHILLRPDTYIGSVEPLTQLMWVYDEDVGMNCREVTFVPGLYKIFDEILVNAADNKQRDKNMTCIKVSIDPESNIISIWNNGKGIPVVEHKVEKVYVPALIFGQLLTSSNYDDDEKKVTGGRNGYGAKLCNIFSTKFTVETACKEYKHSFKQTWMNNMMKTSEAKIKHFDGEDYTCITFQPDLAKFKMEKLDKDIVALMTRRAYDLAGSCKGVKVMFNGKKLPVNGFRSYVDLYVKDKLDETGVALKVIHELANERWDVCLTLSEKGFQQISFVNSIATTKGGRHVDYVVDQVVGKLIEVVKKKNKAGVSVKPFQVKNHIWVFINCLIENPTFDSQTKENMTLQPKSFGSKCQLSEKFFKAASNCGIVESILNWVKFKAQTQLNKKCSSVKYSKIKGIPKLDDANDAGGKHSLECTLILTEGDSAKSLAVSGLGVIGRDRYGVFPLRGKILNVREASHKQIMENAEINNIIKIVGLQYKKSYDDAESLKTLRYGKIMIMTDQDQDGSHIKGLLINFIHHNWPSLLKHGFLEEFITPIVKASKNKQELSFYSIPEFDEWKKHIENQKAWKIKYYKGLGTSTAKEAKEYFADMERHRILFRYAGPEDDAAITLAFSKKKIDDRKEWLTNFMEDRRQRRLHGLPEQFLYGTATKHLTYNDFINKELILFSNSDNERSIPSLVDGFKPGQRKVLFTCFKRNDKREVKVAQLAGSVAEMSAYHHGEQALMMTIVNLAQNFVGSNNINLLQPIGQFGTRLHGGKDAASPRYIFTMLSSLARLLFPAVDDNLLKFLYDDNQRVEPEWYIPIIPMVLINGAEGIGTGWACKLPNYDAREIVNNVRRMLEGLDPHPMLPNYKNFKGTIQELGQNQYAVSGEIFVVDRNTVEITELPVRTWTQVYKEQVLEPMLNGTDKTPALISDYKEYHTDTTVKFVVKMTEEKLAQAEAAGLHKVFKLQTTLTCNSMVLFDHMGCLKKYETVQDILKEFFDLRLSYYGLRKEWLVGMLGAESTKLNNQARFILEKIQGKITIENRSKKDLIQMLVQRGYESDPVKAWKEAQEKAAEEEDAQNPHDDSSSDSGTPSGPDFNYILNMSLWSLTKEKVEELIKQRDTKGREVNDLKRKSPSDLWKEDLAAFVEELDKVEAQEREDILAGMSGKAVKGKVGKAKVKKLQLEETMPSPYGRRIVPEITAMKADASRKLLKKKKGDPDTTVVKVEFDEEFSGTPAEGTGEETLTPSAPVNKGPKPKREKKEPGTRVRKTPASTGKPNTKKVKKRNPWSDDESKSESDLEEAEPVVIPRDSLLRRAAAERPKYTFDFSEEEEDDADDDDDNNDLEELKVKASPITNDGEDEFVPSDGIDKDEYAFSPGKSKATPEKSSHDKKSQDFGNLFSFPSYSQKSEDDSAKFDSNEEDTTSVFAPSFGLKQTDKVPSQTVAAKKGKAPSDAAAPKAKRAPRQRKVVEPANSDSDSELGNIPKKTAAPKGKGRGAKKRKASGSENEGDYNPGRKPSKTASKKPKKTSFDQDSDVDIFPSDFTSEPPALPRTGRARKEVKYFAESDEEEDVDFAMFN

Consider `CCCc1cc(=O)oc2c(C(=O)N3CCCc4ccccc43)c(OCCN3CCN(C)CC3)ccc12` [topobexin (9)], for which the TOP2B spot intensity in data set [1] (Cmpd 9 0.1 μM + etoposide 5 μM) is 104.7 and 108 and 35.48 and 44.18 and 86.39; in data set [1] (Cmpd 9 1 μM + etoposide 5 μM), 30.03 and 46.96 and 8.418 and 33.86 and 32.47; in data set [1] (Cmpd 9 10 μM + etoposide 5 μM), 9.497 and 0.7143 and 3.351 and 13.57 and 7.34; in data set [1] (Cmpd 9 10 μM, etoposide 0, background subtracted) it was 0.7839 and 1.705 and 2.435 and 8.291 and 6.459. In addition, the “concentration significantly reducing TOP2B-DNA CC” value in data set [1] (etoposide-induced, HEK293F) is 1 µM. Moreover, the “TOP2B protein levels in NVCM” value on TOP2B was “potent and concentration-dependent depletion”. Further, the “TOP2B protein level, mean” value on TOP2B (0.1 µM, ctr mean 100) is 23.4137; at TOP2B (1 µM), 1.8687; on TOP2B (10 µM), 0.6098. In addition, the TOP2B protein level at TOP2B (0.1 µM, ctr mean 100) is 11.507 and 22.9519 and 35.7822; at TOP2B (1 μM), 0.3883 and 3.978 and 1.24; at TOP2B (10 µM), 0.07384 and 0.9813 and 0.7742.

For the compound `CCCc1cc(=O)oc2c(C(=O)N3CCCc4ccccc43)c(OC)cc(OC)c12` [BNS-22], the “solubility in aqueous environment” value in the data set “Aqueous solubility” is “poor solubility in aqueous environment”.
